Values of other authors, collected in patent US20200399681A1, “ASSAY FOR DETECTION OF ANDROGEN RECEPTOR VARIANTS” (Cornell University, priority 2018, published 2020).
Like-named read-outs stand apart in the source and are kept apart here.

Assays:
[1] = test system: prostate cancer patients
[2] = test system: prostate cancer patients; remark: listed apart in the source

CNC(=O)c1ccc(N2C(=S)N(c3ccc(C#N)c(C(F)(F)F)c3)C(=O)C2(C)C)cc1F [enza, enzalutamide]
PSA progression-free survival, median ([1]; AR-V7- (negative) pts): 6.0 months; P < 0.001) &
overall survival (OS), median ([1]; AR-V7- (negative) pts): not reached
overall survival (OS), median ([1]; AR-V7-positive pts): 5.5 months
PSA response rates, AR-V7-positive pts compared with AR-V7- pts ([1]; AR-V7-positive vs AR-V7- pts): positive pts had lower PSA
adjusted HR for AR-V7 (TTF, multivariable analysis) ([2]; high AR-V7 expression, adjusted for covariates): cohort (adjusted HR = 2.02
median OS ([2]; pts with high AR-V7 expression (the shorter OS)): 13.8 months
time to treatment failure (TTF), median ([2]; pts with high AR-V7 expression (top tertile, >19 copies/mg RNA)): P = 0.046) and median 3.6 months
median OS ([2]; pts without high AR-V7 expression): 29.1 months
